Measurements as given in EP0478101B1, “Therapeutic use of peptides having thrombospondin-like activity” (W.R. Grace & Co.-Conn., priority 1990, dated 1992).
Positions of bridges follow the written chain, without caps; N, C: chain ends. Residues, ends and D or L forms follow the SMILES beside them. No end group written: not given here.

Legend:
Assay in all cases: Cell adhesion to peptide-coated wells compared with thrombospondin
Format in all cases: cell-based
Settings in all cases: two micrograms of peptide dried on well, 200,000 cells per well, 30 minutes at 37°C, relative to thrombospondin
B16-F10 Mouse Melanoma = tested on: B16-F10 Mouse Melanoma
Protocol: (§1) In this example a series of peptides were tested to determine the abilities of the peptides to bind various cells as compared to thrombospondin. It is believed that thrombospondin acts in metastasis through its adhesive properties. An assay was developed, generally in accordance with the disclosure of Tuszynski et al. (Anal. Bio. (1990) 184:189-91) which evaluates the ability of cells to adhere to the thrombospondin fragments or analogs of the invention. In this assay, thrombospondin (purified by the method of Tuszynski et al., J. Biol. Chem. (1985) 260:12240-5) served as a positive control, bovine serum albumin (BSA) (Sigma Chemical Co.) and the peptides ANKHYF and VCTGSC and TCVCGS served as negative controls. The cell types evaluated were B16F10 mouse melanoma cells, A549 human lung adrenocarcinoma cells, bovine aortic smooth muscle cells, and rabbit smooth muscle cells.
(§2) Thrombospondin analogs of the invention were synthesized as described in Examples 1-4. Two micrograms of peptide or control proteins were air dried overnight on the wells of a 96-well microtiter plate. Wells were then washed with HEPES-buffered saline and blocked for 1 hour with 1% fatty acid free BSA in HEPES-buffered saline.
(§3) The various cells were grown and harvested during log phase of growth using standard procedures. The harvested cells were washed two times in serum-free Dulbecco's minimum essential medium (DMEM) (Flow Laboratories) and suspended in HEPES-buffered saline, containing 5 mM glucose and 100 µM MgCl2 at a final concentration of […]. Of the cell suspension 200,000 cells per well was added to each well of the microtiter dish containing the various ligands and the dish incubated at 37°C in a CO2 incubator for 30 minutes. Nonadherent cells were removed by aspiration and the wells washed three times with 200 µl of PBS. The total cell-associated protein was determined by dissolving the attached cells directly in the microtiter wells with 200 µl of the Pierce BCA working solution (Pierce Chem. Co. Booklet No. 23225 (1987)). The plate was covered with an adhesive mylar sheet (Flow Labs) and incubated at 60°C for 30 minutes. Plates were allowed to cool to room temperature, cover sheets were removed, and the absorbance of each well was determined at 562 nm with a microtiter plate reader (Biotek, Burlington, Vermont.) Absorbances were converted to number of adherent cells by means of an empirically determined conversion factor.

[1] = tested on: A549 Human Lung Adenocarcinoma
Protocol: as §1, §2, §3

Rabbit Smooth Muscle = tested on: Rabbit Smooth Muscle
Protocol: as §1, §2, §3

[2] = tested on: Bovine Aortic Endothelia 1 Cells
Protocol: [Worded in the source for another cell line; this cell line is reported under the same test.] as §1, §2, §3

Compound | Percent of TSP-adherent Cells (B16-F10 Mouse Melanoma) | Percent of TSP-adherent Cells [1] | Percent of TSP-adherent Cells (Rabbit Smooth Muscle) | Percent of TSP-adherent Cells [2]
CC(C)[C@H](NC(=O)[C@H](CS)NC(=O)[C@@H](N)[C@@H](C)O)C(=O)N[C@@H](CS)C(=O)NCC(=O)N[C@@H](CO)C(=O)O [TCVCGS, reference compound] (H-TCVCGS-OH) | 10% | 10% | 8% | 6%
C[C@@H](O)[C@H](NC(=O)[C@H](CO)NC(=O)[C@@H](N)CS)C(=O)N[C@@H](CO)C(=O)N[C@@H](CS)C(=O)N[C@@H](CCCNC(=N)N)C(=O)O [CSTSCR (SEQ ID NO:3), CSTSCR] (H-CSTSCR-OH) | 39% | 104% | 82% | 65%
CC(C)[C@H](N)C(=O)N[C@@H](CS)C(=O)N[C@H](C(=O)NCC(=O)N[C@@H](CO)C(=O)N[C@@H](CS)C(=O)O)[C@@H](C)O [VCTGSC, reference compound] (H-VCTGSC-OH) | 2% | 8% | 17% | 3%
CC(C)[C@H](NC(=O)[C@H](CCCNC(=N)N)NC(=O)[C@@H](N)CS)C(=O)N[C@H](C(=O)N[C@@H](CS)C(=O)NCC(=O)O)[C@@H](C)O [CRVTCG (SEQ ID NO:5), CRVTCG] (H-CRVTCG-OH) | 92% | 79% | 82% | 80%
CC(C)[C@H](NC(=O)[C@H](CO)NC(=O)[C@@H](N)CS)C(=O)N[C@H](C(=O)N[C@@H](CS)C(=O)NCC(=O)O)[C@@H](C)O [CSVTCG (SEQ ID NO:1), CSVTCG] (H-CSVTCG-OH) | 40% | 29% | 44% | 49%
C[C@@H](O)[C@H](NC(=O)[C@H](CO)NC(=O)[C@@H](N)CS)C(=O)N[C@@H](CO)C(=O)N[C@@H](CS)C(=O)NCC(=O)O [CSTSCG (SEQ ID NO:4), CSTSCG] (H-CSTSCG-OH) | 37% | 23% | 22% | 39%
CC(C)[C@@H]1NC(=O)[C@H](CO)NC(=O)[C@@H](N)CSSC[C@@H](C(=O)NCC(=O)O)NC(=O)[C@H]([C@@H](C)O)NC1=O [Cyclic CSVTCG (SEQ ID NO:1), cyclic CSVTCG-Acid] (H-CSVTCG-OH; disulfide 1-5) | 30% | 29% | 43% | 25%
Blocked CSVTCG [Blocked CSVTCG (SEQ ID NO:1)] | 32% | 44% | 46% | 22%
ASVTAR [ASVTAR (SEQ ID NO:7), ASVTAR] | 39% |  |  | 
CC(C)[C@H](NC(=O)[C@H](CO)NC(=O)[C@@H](N)CS)C(=O)N[C@H](C(=O)N[C@@H](CS)C(=O)N[C@@H](CCCNC(=N)N)C(=O)O)[C@@H](C)O [CSVTCR (SEQ ID NO:2), CSVTCR] (H-CSVTCR-OH) | 92% | 90% | 159% | 99%
ANKHYF [ANKHYF, reference compound] | 8% | 10% | 17% | 0%
